# Assay results as given in patent publication US12122766B2, “3-azabicyclo[3,1,1]heptane derivative and pharmaceutical composition including same” (LG CHEM, LTD., priority 2018, dated 2024).
# Target: T1, Ketohexokinase (KHK) (Homo sapiens, UniProt P50053)
# T1 construct: His tag; made in house; host or cells: E. coli
# T1 sequence (P50053 1-298): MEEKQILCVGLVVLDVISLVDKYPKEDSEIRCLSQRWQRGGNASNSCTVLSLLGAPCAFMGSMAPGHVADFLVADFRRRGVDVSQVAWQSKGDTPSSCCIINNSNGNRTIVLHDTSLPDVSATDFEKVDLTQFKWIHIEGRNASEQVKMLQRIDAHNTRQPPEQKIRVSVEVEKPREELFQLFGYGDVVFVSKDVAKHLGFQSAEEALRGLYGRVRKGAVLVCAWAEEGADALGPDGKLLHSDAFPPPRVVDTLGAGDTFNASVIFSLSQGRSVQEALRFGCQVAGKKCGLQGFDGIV
# Experiment: Activity measurement of ketohexokinase inhibitor in vitro (Transcreener ADP2 TR-FRET Red Assay)
# Type: biochemical
# Conditions: purified His-tagged KHK expressed in E. coli; 30 min preincubation with inhibitor, 15 min reaction with ATP and fructose; ADP by TR-FRET (665/615 ratio)
# Procedure: Ketohexokinase (KHK) was expressed in E. coli, and was purified using His tag. In order to measure the activity of the purified KHK, Transcreener ADP2 TR-FRET Red Assay kit of BellBrook Labs was used. A method of measuring the amount of ADP produced using TR-FRET after reacting a solution including appropriate concentrations of a KHK protein, ATP, and fructose for 15 minutes, was used. In order to observe the activity of a ketohexokinase (KHK) inhibitor, ketohexokinase (KHK) and an inhibitor with an appropriate concentration were reacted first for 30 minutes, and then, reacted with a solution include a substrate of ketohexokinase (KHK) for 15 minutes. Then, reaction for TR-FRET was conducted for 1 hour, and fluorescence was measured using Envision apparatus of PerkinElmer Co. The predetermined value of Envision apparatus was determined according to the optimization process of TR-FRET published by BellBrook Lab. The resultant value for each concentration of the ketohexokinase (KHK) inhibitor is determined by a ratio of 665 nm wavelength and 615 nm wavelength. IC50 is analyzed by measuring the 665/615 ratio value with respect to the concentration of each inhibitor and using a statistics software (Prizm). IC50 was represented by the concentration of the inhibitor, showing 50% of the maximum inhibition activity by the inhibitor.
row,SMILES,IC50 [µM]
1,"C[C@H]1CCN1c1nc(N2C[C@H]3C[C@@H](C2)[C@@H]3CC(=O)O)cc(C(F)(F)F)c1C#N [Example 4, 2-((1R,5S,6S)-3-(5-cyano-6-((S)-2-methylazetidine-1-yl)-4-(trifluoromethyl)pyridine-2-yl)-3-azabicyclo[3,1,1]heptane-6-yl)acetic Acid]",≤ 21.2
2,"N#Cc1c(C(F)(F)F)cc(N2C[C@H]3C[C@@H](C2)[C@@H]3CC(=O)O)nc1N1CCCC1 [Example 5, 2-((1R,5S,6R)-3-(5-cyano-6-(pyrrolidine-1-yl)-4-(trifluoromethyl)pyridine-2-yl)-3-azabicyclo[3,1,1]heptane-6-yl)acetic Acid]",≤ 21.2
3,"C[C@H]1CCN1c1nc(N2C[C@H]3C[C@@H](C2)[C@H]3CC(=O)O)cc(C(F)(F)F)c1C#N [Example 3, 2-((1R,5S,6R)-3-(5-cyano-6-((S)-2-methylazetidine-1-yl)-4-(trifluoromethyl)pyridine-2-yl)-3-azabicyclo[3,1,1]heptane-6-yl)acetic Acid]",≥ 1
4,"C[C@H]1CCN1c1nc(N2C[C@H]3C[C@@H](C2)[C@H]3CC(=O)O)cc(C(F)(F)F)n1 [Example 1, 2-((1R,5S,6R)-3-(2-((S)-2-methylazetidine-1-yl)-6-(trifluoromethyl)pyrimidine-4-yl)-3-azabicyclo[3,1,1]heptane-6-yl)acetic Acid]",≥ 1
5,"C[C@H]1CCN1c1nc(N2C[C@H]3C[C@@H](C2)[C@@H]3CC(=O)O)cc(C(F)(F)F)n1 [Example 2, 2-((1R,5S,6S)-3-(2-((S)-2-methylazetidine-1-yl)-6-(trifluoromethyl)pyrimidine-4-yl)-3-azabicyclo[3,1,1]heptane-6-yl)acetic Acid]",≤ 21.2
